The target of data set [1] is T1, PI3Kγ (p101/p110γ protein) (Homo sapiens, UniProt P48736).
T1 construct: HA; made in house; host or cells: Spodoptera frugiperda (Sf9) cells, baculovirus co-infection
Description: PI3Kγ In Vitro Kinase Assay. The note with it: purified recombinant p101/p110γ with G protein β1/γ2 subunits; 20 μM ATP, 25 μM PIP2; 20 minutes at room temperature. The data set is classed as biochemical. The essentials: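 Reactions ran 20 min at room temperature, pairing lipid micelles (25 μM PIP2, 300 μM PE, 0.02% Na-cholate, 10 mM MgCl2) with 20 μM ATP including [γ-32P]ATP. The enzyme was recombinant p101/p110γ (2.7 nM) with G protein β1/γ2 (57.7 nM). [32P]PIP3 product was stopped with H3PO4, filtered and scintillation counted.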

T1 sequence (P48736 whole entry, species assumed): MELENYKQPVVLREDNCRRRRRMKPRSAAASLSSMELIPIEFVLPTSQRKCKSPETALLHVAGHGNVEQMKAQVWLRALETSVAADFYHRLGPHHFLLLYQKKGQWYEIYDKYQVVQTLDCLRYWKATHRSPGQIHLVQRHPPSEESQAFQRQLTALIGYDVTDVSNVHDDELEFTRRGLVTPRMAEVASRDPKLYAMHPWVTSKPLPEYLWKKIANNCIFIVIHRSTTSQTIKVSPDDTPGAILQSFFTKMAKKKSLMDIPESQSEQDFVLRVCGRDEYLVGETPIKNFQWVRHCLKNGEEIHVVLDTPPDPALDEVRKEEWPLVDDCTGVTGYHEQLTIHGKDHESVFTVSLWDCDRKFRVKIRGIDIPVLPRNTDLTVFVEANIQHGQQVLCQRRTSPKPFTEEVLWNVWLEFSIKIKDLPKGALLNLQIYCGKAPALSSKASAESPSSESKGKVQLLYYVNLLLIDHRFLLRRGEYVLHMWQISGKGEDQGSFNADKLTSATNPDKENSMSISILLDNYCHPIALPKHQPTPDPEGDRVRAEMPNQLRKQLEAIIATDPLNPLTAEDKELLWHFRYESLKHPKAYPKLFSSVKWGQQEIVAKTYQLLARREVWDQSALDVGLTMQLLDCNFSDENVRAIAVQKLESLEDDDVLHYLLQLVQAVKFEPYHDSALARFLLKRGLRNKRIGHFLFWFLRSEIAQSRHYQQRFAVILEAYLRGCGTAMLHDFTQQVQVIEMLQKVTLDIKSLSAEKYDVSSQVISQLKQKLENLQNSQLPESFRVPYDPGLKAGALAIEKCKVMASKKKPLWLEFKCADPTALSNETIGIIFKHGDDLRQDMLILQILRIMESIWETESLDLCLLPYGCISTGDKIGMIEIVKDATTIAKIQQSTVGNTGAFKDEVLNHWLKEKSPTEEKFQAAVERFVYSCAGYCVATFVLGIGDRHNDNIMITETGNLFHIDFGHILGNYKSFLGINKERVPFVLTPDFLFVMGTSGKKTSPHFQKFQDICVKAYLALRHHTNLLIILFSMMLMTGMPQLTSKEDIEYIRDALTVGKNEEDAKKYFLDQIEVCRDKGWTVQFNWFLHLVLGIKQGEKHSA
T1 sequence (Q8WYR1 whole entry partner, species assumed): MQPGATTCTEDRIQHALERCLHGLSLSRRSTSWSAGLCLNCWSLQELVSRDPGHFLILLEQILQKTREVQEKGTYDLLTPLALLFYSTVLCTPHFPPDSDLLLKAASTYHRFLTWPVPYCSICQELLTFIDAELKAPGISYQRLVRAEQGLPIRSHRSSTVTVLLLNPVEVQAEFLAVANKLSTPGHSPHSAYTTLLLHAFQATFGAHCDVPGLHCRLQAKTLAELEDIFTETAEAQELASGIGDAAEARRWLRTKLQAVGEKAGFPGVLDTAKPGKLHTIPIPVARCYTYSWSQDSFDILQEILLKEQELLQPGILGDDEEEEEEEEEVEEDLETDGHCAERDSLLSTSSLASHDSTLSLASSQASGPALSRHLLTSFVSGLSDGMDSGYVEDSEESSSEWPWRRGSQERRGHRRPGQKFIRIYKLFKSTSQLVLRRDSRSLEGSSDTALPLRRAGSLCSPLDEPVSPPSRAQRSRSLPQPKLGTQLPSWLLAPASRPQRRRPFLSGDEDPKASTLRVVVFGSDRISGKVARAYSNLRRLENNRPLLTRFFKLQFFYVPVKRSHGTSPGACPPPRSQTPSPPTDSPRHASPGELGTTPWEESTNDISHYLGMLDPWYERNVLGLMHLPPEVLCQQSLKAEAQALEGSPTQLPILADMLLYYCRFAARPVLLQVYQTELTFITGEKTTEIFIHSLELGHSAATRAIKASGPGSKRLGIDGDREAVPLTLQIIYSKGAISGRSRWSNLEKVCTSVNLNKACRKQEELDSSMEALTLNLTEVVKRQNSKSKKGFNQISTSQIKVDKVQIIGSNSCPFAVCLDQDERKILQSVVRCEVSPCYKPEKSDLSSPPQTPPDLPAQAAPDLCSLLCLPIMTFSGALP

As for `O=C1NC(=S)SC1=Cc1cc(Cl)c2c(c1)N(CCc1ccc(C(F)(F)F)cc1)C(=O)CO2` [Example 107, 8-Chloro-6-(oxo-2-thioxo-thiazolidin-5-ylidenmethyl)-4-[2-(4-trifluoromethyl-phenyl)-ethyl]-4H-benzo[1,4]oxazin-3-one], the melting point (usually the temperature, or range, at which the solid turns liquid) lay within 275 to 277 °C. In data set [1], the IC50 (usually the concentration that gives 50% inhibition) stood at 72 nM.

In turn, `O=C1NC(=S)SC1=Cc1ccc2c(c1)N(CCc1ccccc1C(F)(F)F)C(=O)CO2` [Example 108, 6-(Oxo-2-thioxo-thiazolidin-5-ylidenmethyl)-4-[2-(2-trifluoromethyl-phenyl)-ethyl]-4H-benzo[1,4]oxazin-3-one] displayed a melting point of 283 to 286 °C. Moreover, the concentration for half-maximal inhibition (IC50) in data set [1] is 4 nM.

In turn, `O=C1NC(=S)SC1=Cc1ccc2c(c1)N(Cc1cccc(-c3ccncc3)c1)C(=O)CO2` [Example 114, 6-(4-Oxo-2-thioxo-thiazolidin-5-ylidenemethyl)-4-(3-pyridin-4-yl-benzyl)-4H-benzo[1,4]-oxazin-3-one] gave a melting point of 297 to 299 °C. The IC50 in data set [1] turned out to be 5 nM.

Turning to `O=C1NC(=S)SC1=Cc1ccc2c(c1)N(CCc1ccc(Oc3ccccc3)cc1)C(=O)CO2` [Example 129, 6-(4-Oxo-2-thioxo-thiazolidin-5-ylidenemethyl)-4-[2-(4-phenoxy-phenyl)-ethyl]-4H-1,4-benzoxazin-3-one], the melting point lay in the range of 220 to 224 °C. For the same compound, the IC50 in data set [1] came out at 49 nM.

`COc1cc(CCN2C(=O)COc3ccc(C=C4SC(=S)NC4=O)cc32)cc(OC)c1` [Example 130, 4-[2-(3,5-Dimethoxy-phenyl)-ethyl]-6-(4-oxo-2-thioxo-thiazolidin-5-ylidenemethyl)-4H-benzo[1,4]oxazin-3-one] displayed a melting point of 267 to 269 °C. For the same compound, the half-inhibitory concentration (IC50) in data set [1] was 3 nM.

The compound `CC(C)(C)c1ccc(CCN2C(=O)COc3ccc(C=C4SC(=S)NC4=O)cc32)cc1` [Example 131, 4-[2-(4-tert-Butyl-phenyl)-ethyl]-6-(4-oxo-2-thioxo-thiazolidin-5-ylidenemethyl)-4H-benzo[1,4]-oxazin-3-one] gave a melting point of 283 to 285 °C. For the same compound, in data set [1], the half-inhibitory concentration (IC50) worked out at 39 nM.

Turning to `CN(C)c1ccc(CCN2C(=O)COc3ccc(C=C4SC(=S)NC4=O)cc32)cc1` [Example 132, 4-[2-(4-Dimethylaniino-phenyl)-ethyl]-6-(4-oxo-2-thioxo-thiazolidin-5-ylidenemethyl)-4H-benzo[1,4]-oxazin-3-one], the melting point fell in the range of 266 to 268 °C. Moreover, in data set [1], the half-maximal inhibitory concentration (IC50) was 12 nM.

On to `O=C1NC(=S)SC1=Cc1ccc2c(c1)N(CCc1ccc(F)c(F)c1)C(=O)CO2` [Example 133, 4-[2-(3,4-Difluoro-phenyl)-ethyl]-6-(4-oxo-2-thioxo-thiazolidin-5-ylidenemethyl)-4H-benzo[1,4]oxazin-3-one], for which the melting point lay within 263 to 266 °C. In addition, in data set [1], the IC50 was 5 nM.

Compound `O=C1NC(=S)SC1=Cc1ccc2c(c1)N(CCc1ccc(Cl)cc1)C(=O)CO2` [Example 134, 4-[2-(4-Chloro-phenyl)-ethyl]-6-(4-oxo-2-thioxo-thiazolidin-5-ylidenemethyl)-4H-1,4-benzoxazin-3-one] had a melting point of 278 to 280 °C. The concentration for half-maximal inhibition (IC50) in data set [1] came out at 5 nM.

`O=C1NC(=S)SC1=Cc1ccc2c(c1)N(CCc1cccc(Cl)c1)C(=O)CO2` [Example 135, 4-[2-(3-Chloro-phenyl)-ethyl]-6-(4-oxo-2-thioxo-thiazolidin-5-ylidenemethyl)-4H-1,4-benzoxazin-3-one] came in with a melting point of 280 to 282 °C. In data set [1], the IC50 is 5 nM.

As for `COc1cccc(CCN2C(=O)COc3ccc(C=C4SC(=S)NC4=O)cc32)c1` [Example 137, 4-[2-(3-Methoxy-phenyl)-ethyl]-6-(4-oxo-2-thioxo-thiazolidin-5-ylidenemethyl)-4H-1,4-benzoxazin-3-one], the melting point lay in the range of 233 to 236 °C. For the same compound, the IC50 in data set [1] came out at 3 nM.

Consider `Cc1ccc(CCN2C(=O)COc3ccc(C=C4SC(=S)NC4=O)cc32)cc1` [Example 138, 6-(4-Oxo-2-thioxo-thiazolidin-5-ylidenemethyl)-4-(2-p-tolyl-ethyl)-4H-1,4-benzoxazin-3-one], for which the melting point lay in the range of 267 to 269 °C. In addition, the 50% inhibitory concentration (IC50) in data set [1] was determined as 10 nM.

`O=C1NC(=S)SC1=Cc1ccc2c(c1)N(OCc1ccc(C(F)(F)F)cc1)C(=O)CO2` [Example 207, 6-(4-Oxo-2-thioxo-thiazolidin-5-ylidenemethyl)-4-(4-trifluoromethyl-benzyloxy)-4H-benzo[1,4]oxazin-3-one]: the melting point was greater than 300 °C. Further, the half-inhibitory concentration (IC50) in data set [1] was determined as 2 nM.

For `O=C1NC(=S)SC1=Cc1ccc2c(c1)N(OCC1CCCCC1)C(=O)CO2` [Example 208, 4-Cyclohexylmethoxy-6-(4-oxo-2-thioxo-thiazolidin-5-ylidenemethyl)-4H-benzo[1,4]oxazin-3-.one], the melting point lay in the range of 249 to 250 °C. Moreover, in data set [1], the IC50 came out at 2 nM.

`CC(C)(C)c1cc(CON2C(=O)COc3ccc(C=C4SC(=S)NC4=O)cc32)cc(C(C)(C)C)n1` [Example 209, 4-(2,6-Di-tert-butyl-pyridin-4-ylmethoxy)-6-(4-oxo-2-thioxo-thiazolidin-5-ylidenemethyl)-4H-benzo[1,4]oxazin-3-one] had a melting point greater than 300 °C. In addition, the IC50 in data set [1] came to 74 nM.

The values are drawn from patent US7205295B2, “Benzoxazin-3-ones and derivatives thereof as therapeutic agents” (Warner-Lambert Company LLC, priority 2002, dated 2007).
